Assay results published in patent US20180185408A1, “ANTIFUNGAL NYLON-3 POLYMERS AND COMBINATION THERAPY USING THEM TO TREAT FUNGAL INFECTIONS” (priority 2016, published 2018).
≈ marks a conversion by molar mass, not a printed value. Like-named read-outs stand apart in the source and are kept apart here.

Experiments:
Type in all cases: cell-based
Cryptococcus neoformans [1] = experiment: MIC by broth microdilution (CLSI M27-A3); details: […]10^3 cells/mL
Cryptococcus neoformans [2] = experiment: Minimum fungicidal concentration (MFC), plating after MIC assay; details: RPMI 1640 (0.2% Glucose), […]10^3 cells/mL, 37° C.
Cryptococcus gattii [3] = experiment: as above; details: Sensitive, RPMI 1640 (0.2% Glucose), […]10^3 cells/mL, 37° C.
Candida albicans = experiment: as above; details: […]10^5 cells/mL
Candida lusitaniae = experiment: MIC by broth microdilution (CLSI M27-A3)
Cryptococcus gattii [4] = experiment: MIC by broth microdilution (CLSI M27-A3); details: […]10^3 cells/mL

SMILES: C[C@@H]1[C@H](O)[C@@H](C)/C=C/C=C/C=C/C=C/C=C/C=C/C=C/[C@H](O[C@@H]2O[C@H](C)[C@@H](O)[C@H](N)[C@@H]2O)C[C@@H]2O[C@](O)(C[C@@H](O)C[C@@H](O)[C@H](O)CC[C@@H](O)C[C@@H](O)CC(=O)O[C@H]1C)C[C@H](O)[C@H]2C(=O)O [AMB, amphotericin B]
- MIC (Cryptococcus neoformans [1]; C. neoformans (B3501), 30°C): 0.9 µM
- MIC (Cryptococcus neoformans [1]; C. neoformans (C21F3), 30°C): 0.9 µM
- MIC (Cryptococcus neoformans [1]; C. neoformans (H99), Sensitive, RPMI 1640 (0.2% Glucose), 37° C.): 1.6 µg/mL
- MIC (Cryptococcus neoformans [1]; C. neoformans (H99), 30°C): 1.7 µM
- MIC (Cryptococcus neoformans [1]; C. neoformans (JEC21), Sensitive, RPMI 1640 (0.2% Glucose), 37° C.): 0.2 µg/mL
- MIC (Cryptococcus neoformans [1]; C. neoformans (JEC21), 30°C): 0.2 µM
- MIC (Cryptococcus neoformans [1]; H99, 30°C, OD600 48 h): 1.6 µg/mL
- MIC (Cryptococcus neoformans [1]; H99, 30°C, OD600 48 h, Table 15): 1.7 µM
- MIC (Cryptococcus neoformans [1]; JEC21, 30°C, OD600 48 h): 0.2 µg/mL
- MIC (Cryptococcus neoformans [1]; JEC21, 30°C, OD600 48 h, Table 15): 0.2 µM
- MIC (Cryptococcus neoformans [1]; […], RPMI 1640 (0.2% Glucose), 37° C.): 0.8 µg/mL
- MFC (Cryptococcus neoformans [2]; C. neoformans (B3501), Sensitive): 0.8 µg/mL (≈ 0.866 µM)
- MFC (Cryptococcus neoformans [2]; C. neoformans (C21F3), Rapamycin Resistant): 0.8 µg/mL (≈ 0.866 µM)
- MFC (Cryptococcus neoformans [2]; C. neoformans (H99), Sensitive): 1.6 µg/mL (≈ 1.73 µM)
- MFC (Cryptococcus neoformans [2]; C. neoformans (JEC21), Sensitive): 0.4 µg/mL (≈ 0.433 µM)
- MFC (Cryptococcus gattii [3]; C. gattii (C751)): 0.8 µg/mL (≈ 0.866 µM)
- MFC (Cryptococcus gattii [3]; C. gattii (WM275)): 3.1 µg/mL (≈ 3.35 µM)
- MFC (Candida albicans; C. albicans (E4), Amp B Resistant, RPMI 1640 (0.2% Glucose), 30° C.): 12.5 µg/mL
- MFC (Candida albicans; C. albicans (Gu5), Fluconazole Resistant, RPMI 1640 (0.2% Glucose), 30° C.): 1.56 µg/mL
- MFC (Candida albicans; C. albicans (K1), Fluconazole Resistant, RPMI 1640 (0.2% Glucose), 30° C.): 3.13 µg/mL
- MFC (Candida albicans; C. albicans (SCG5314), Sensitive, RPMI 1640 (0.2% Glucose), 30° C.): 1.56 µg/mL
- MFC (Candida albicans; E4, 30°C, avg.): 12.5 µg/mL
- MFC (Candida albicans; E4, 30°C, avg., read-out: MFC): 13.5 µM
- MFC (Candida albicans; E4, 30°C, trial 1): 12.5 µg/mL
- MFC (Candida albicans; E4, 30°C, trial 1, read-out: MFC): 13.5 µM
- MFC (Candida albicans; E4, 30°C, trial 2): 12.5 µg/mL
- MFC (Candida albicans; E4, 30°C, trial 2, read-out: MFC): 13.5 µM
- MFC (Candida albicans; Gu5, 30°C, avg.): 1.6 µg/mL
- MFC (Candida albicans; Gu5, 30°C, avg., read-out: MFC): 1.7 µM
- MFC (Candida albicans; Gu5, 30°C, trial 1): 1.6 µg/mL
- MFC (Candida albicans; Gu5, 30°C, trial 1, read-out: MFC): 1.7 µM
- MFC (Candida albicans; Gu5, 30°C, trial 2): 1.6 µg/mL
- MFC (Candida albicans; Gu5, 30°C, trial 2, read-out: MFC): 1.7 µM
- MFC (Candida albicans; K1, 30°C, avg.): 3.1 µg/mL
- MFC (Candida albicans; K1, 30°C, avg., read-out: MFC): 3.4 µM
- MFC (Candida albicans; K1, 30°C, trial 1): 3.1 µg/mL
- MFC (Candida albicans; K1, 30°C, trial 1, read-out: MFC): 3.4 µM
- MFC (Candida albicans; K1, 30°C, trial 2): 3.1 µg/mL
- MFC (Candida albicans; K1, 30°C, trial 2, read-out: MFC): 3.4 µM
- MFC (Candida albicans; SC5314, 30°C, avg.): 1.6 µg/mL
- MFC (Candida albicans; SC5314, 30°C, avg., read-out: MFC): 1.7 µM
- MFC (Candida albicans; SC5314, 30°C, trial 1): 1.6 µg/mL
- MFC (Candida albicans; SC5314, 30°C, trial 1, read-out: MFC): 1.7 µM
- MFC (Candida albicans; SC5314, 30°C, trial 2): 1.6 µg/mL
- MFC (Candida albicans; SC5314, 30°C, trial 2, read-out: MFC): 1.7 µM
- MIC (Candida lusitaniae; C. Lusitania (CL3), Sensitive, RPMI 1640 (0.2% Glucose), […]10^5 cells/mL, 30° C.): 0.4 µg/mL
- MIC (Candida lusitaniae; C. lusitaniae (CL3), […]10^3 cells/mL, 35°C, read-out: MIC): 0.4 µM
- MIC (Candida lusitaniae; CL3, […]10^3 cells/mL, 35°C, OD600 24 h, avg.): <1.6 µg/mL
- MIC (Candida lusitaniae; CL3, […]10^3 cells/mL, 35°C, OD600 24 h, avg., read-out: MIC): <1.7 µM
- MIC (Candida lusitaniae; CL3, […]10^3 cells/mL, 35°C, OD600 24 h, trial 1): <1.6 µg/mL
- MIC (Candida lusitaniae; CL3, […]10^3 cells/mL, 35°C, OD600 24 h, trial 1, read-out: MIC): <1.7 µM
- MIC (Candida lusitaniae; CL3, […]10^3 cells/mL, 35°C, OD600 24 h, trial 2): <1.6 µg/mL
- MIC (Candida lusitaniae; CL3, […]10^3 cells/mL, 35°C, OD600 24 h, trial 2, read-out: MIC): <1.7 µM
- MIC (Candida lusitaniae; CL3, […]10^5 cells/mL, 30°C, OD600 48 h, avg.): 0.4 µg/mL
- MIC (Candida lusitaniae; CL3, […]10^5 cells/mL, 30°C, OD600 48 h, avg., read-out: MIC): 0.4 µM
- MIC (Candida lusitaniae; CL3, […]10^5 cells/mL, 30°C, OD600 48 h, trial 1): 0.4 µg/mL
- MIC (Candida lusitaniae; CL3, […]10^5 cells/mL, 30°C, OD600 48 h, trial 1, read-out: MIC): 0.4 µM
- MIC (Candida lusitaniae; CL3, […]10^5 cells/mL, 30°C, OD600 48 h, trial 2): 0.4 µg/mL
- MIC (Cryptococcus gattii [4]; C751, 30°C, OD600 48 h): ≤0.2 µg/mL
- MIC (Cryptococcus gattii [4]; C751, 30°C, OD600 48 h, Table 15, read-out: MIC): ≤0.2 µM
- MIC (Cryptococcus gattii [4]; C. gattii (C751), Sensitive, RPMI 1640 (0.2% Glucose), 37° C.): ≤0.2 µg/mL
- MIC (Cryptococcus gattii [4]; C. gattii (C751), 30°C, read-out: MIC): ≤0.2 µM
- MIC (Cryptococcus gattii [4]; C. gattii (WM275), Sensitive, RPMI 1640 (0.2% Glucose), 37° C.): 0.8 µg/mL
- MIC (Cryptococcus gattii [4]; C. gattii (WM276), 30°C, read-out: MIC): 0.9 µM
- MIC (Cryptococcus gattii [4]; WM276, 30°C, OD600 48 h): 0.8 µg/mL
- MIC (Cryptococcus gattii [4]; WM276, 30°C, OD600 48 h, Table 15, read-out: MIC): 0.9 µM
